Read-outs that look alike come from different tables or passages of the source.
Assays:
[1] = system: selectins; details: cited from earlier work
[2] = system: leukocyte adhesion on the endothelium; assay: LPS-induced leukocyte adhesion in vivo, intravital microscopy in the mesenterium of the rat; details: SPRD (m)
Excerpt: In inflammatory processes and other states which activate the cytokines, a critical part is played by the destruction of tissue by means of leukocytes which migrate in or which block the microcirculation. The first phase, which is critical for the subsequent course of the disease, is the activation of leukocytes within the blood stream, especially in the pre- and post-capillary area. […] All subsequent leukocyte effects, i.e. active migration through the vessel wall and subsequent oriented migration in the tissue, are secondary reactions (Harlan, J. M., Leukocyte-endothelial interaction, Blood 65, 513-525,1985). […]
The induced adhesion of leukocytes is quantified by an investigation technique involving intravital microscopy in the mesenterium of the rat (Atherton A. and Born G.V.R., Quantitative investigations of the adhesiveness of circulating polymorphonuclear leukocytes to blood vessel walls. J. Physiol. 222, 447-474,1972; Seiffge, D. Methoden zur Untersuchung der Rezeptor-vermittelten Interaktion zwischen Leukozyten und Endotheizellen im Entzundungsgeschehen [Methods of investigating receptor-mediated interaction between leukocytes and endothelial cells in the case of inflammation] in: Ersatz- und Erganzungsmethoden zu Tierversuchen in der biomedizinischen Forschung, Schoffl, H. et al., (eds.) Springer, 1995 (in press)). […]

[3] = WO 95/04526; WO 94/24145; cited from earlier work
[4] = system: 5-lipoxygenase; details: WO 95/04526; WO 94/24145; cited from earlier work
[5] = target: T1, P-Selectin (Homo sapiens, UniProt P16109); details: WO 95/04526, WO 94/24145, cited from earlier work
T1 sequence (P16109 42-830): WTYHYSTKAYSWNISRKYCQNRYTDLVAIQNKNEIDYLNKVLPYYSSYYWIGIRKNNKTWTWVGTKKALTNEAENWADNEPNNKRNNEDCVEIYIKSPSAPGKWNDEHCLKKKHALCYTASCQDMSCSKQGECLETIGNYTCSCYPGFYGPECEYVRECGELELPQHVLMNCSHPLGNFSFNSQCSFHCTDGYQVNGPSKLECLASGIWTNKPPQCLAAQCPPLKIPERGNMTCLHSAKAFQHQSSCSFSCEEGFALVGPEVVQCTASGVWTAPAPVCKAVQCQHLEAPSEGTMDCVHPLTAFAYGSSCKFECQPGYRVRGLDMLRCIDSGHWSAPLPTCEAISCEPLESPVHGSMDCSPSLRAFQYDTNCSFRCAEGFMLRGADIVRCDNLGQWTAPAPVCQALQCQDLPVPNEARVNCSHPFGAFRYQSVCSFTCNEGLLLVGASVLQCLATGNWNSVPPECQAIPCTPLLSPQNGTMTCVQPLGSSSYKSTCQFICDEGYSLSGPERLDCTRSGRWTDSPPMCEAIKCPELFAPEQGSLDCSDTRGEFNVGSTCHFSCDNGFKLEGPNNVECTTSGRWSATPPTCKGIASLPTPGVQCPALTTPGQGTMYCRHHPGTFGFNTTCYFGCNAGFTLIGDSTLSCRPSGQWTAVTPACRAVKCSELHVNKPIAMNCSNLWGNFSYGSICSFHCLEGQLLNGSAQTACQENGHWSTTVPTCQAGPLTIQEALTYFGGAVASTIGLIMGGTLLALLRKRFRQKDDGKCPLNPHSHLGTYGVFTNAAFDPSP

[6] = system: myocardial reperfusion injuries; details: animal experiments; Buerke et al. 1994; cited from earlier work
[7] = system: P-selectin-dependent lung injuries; details: animal experiments; Mulligan et al. 1993; cited from earlier work

## CC1OC(CCCCC2OC(CO)C(O)C(CCC(=O)O)C2O)C(O)C(O)C1O (stereo not shown) [Compound 3]
[1]; Wong et al., J. Am. Chem. Soc. 1995
  IC50: 10 to 20 mM

## C[C@@H]1O[C@@H](CCCOC(=O)N2CCC(C(=O)O)CC2)[C@@H](O)[C@H](O)[C@@H]1O [Compound 12c]
[2]; 3 mg/kg, 1 day i.v.
  inhibition of leukocyte adhesion: 58%
[2]; 20 mg/kg, 1 day p.o.
  inhibition of leukocyte adhesion: 29%

## C=C(CO[C@H]1CC[C@]2(C)[C@H]3C(=O)C=C4[C@@H]5C[C@@](C)(C(=O)O)CC[C@]5(C)CC[C@@]4(C)[C@]3(C)CC[C@H]2C1(C)C)C[C@@H]1O[C@@H](C)[C@@H](O)[C@@H](O)[C@@H]1O [Compound 4a]
[3]
  antimetastatic action: antimetastatic action
[4]
  inhibition of 5-lipoxygenase: inhibition of 5-lipoxygenase
[5]
  P-selectin inhibition (in words): P-selectin inhibition
[5]; read-out: IC50 for binding to P-selectin
  IC50: 0.75 mM

## CC1OC(CC(=O)C2CCCC2C(=O)NC(Cc2ccccc2)C(=O)O)C(O)C(O)C1O (stereo not shown) [Compound 2]
[1]; glycopeptide analogs (WO 95/04751), region of up to
  IC50: ≤ 1 mM

## CC(=O)NC1C(O)CC(OC2C(O)C(CO)OC(OC3C(CO)OC(O)C(NC(C)=O)C3OC3OC(C)C(O)C(O)C3O)C2O)(C(=O)O)OC1C(O)C(O)CO (stereo not shown) [SLeX]
[6]
  use in myocardial reperfusion injuries: successfully used
[7]
  use in P-selectin-dependent lung injuries: successfully used
